Assay results reported in PubChem BioAssay (NCI).
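Assay format: 96-well plates, 48-hour exposure. Abbreviation: GI50, concentration required for 50% inhibition of growth. TGI: total growth inhibition.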

How the values were obtained:
Test in all cases: DTP human tumour cell line panel, 48 h
NCI-H522 lung = tested on: NCI-H522 lung
HOP-62 NSCLC = tested on: HOP-62 NSCLC
NCI-H23 lung = tested on: NCI-H23 lung
MALME-3M melanoma = tested on: MALME-3M melanoma
ACHN renal = tested on: ACHN renal
RPMI-8226 leukemia = tested on: RPMI-8226 leukemia
HL-60(TB) leukemia = tested on: HL-60(TB) leukemia
UACC-257 melanoma = tested on: UACC-257 melanoma
HCT-15 colon = tested on: HCT-15 colon
MCF7 breast = tested on: MCF7 breast
MDA-MB-435 = tested on: MDA-MB-435
SN12C renal = tested on: SN12C renal
LOX IMVI melanoma = tested on: LOX IMVI melanoma
U251 CNS = tested on: U251 CNS
IGROV1 ovarian = tested on: IGROV1 ovarian
786-0 renal = tested on: 786-0 renal
MOLT-4 leukemia = tested on: MOLT-4 leukemia
DU-145 prostate = tested on: DU-145 prostate
OVCAR-5 ovarian = tested on: OVCAR-5 ovarian
SNB-75 CNS = tested on: SNB-75 CNS
RXF 393 renal = tested on: RXF 393 renal
SNB-19 CNS = tested on: SNB-19 CNS
SF-295 CNS = tested on: SF-295 CNS
UACC-62 melanoma = tested on: UACC-62 melanoma
A498 renal = tested on: A498 renal
OVCAR-3 ovarian = tested on: OVCAR-3 ovarian
SK-MEL-28 melanoma = tested on: SK-MEL-28 melanoma
SF-268 CNS = tested on: SF-268 CNS
HT29 colon = tested on: HT29 colon
NCI-H460 lung = tested on: NCI-H460 lung
T-47D breast = tested on: T-47D breast
BT-549 breast = tested on: BT-549 breast
HCC-2998 colon = tested on: HCC-2998 colon
OVCAR-8 ovarian = tested on: OVCAR-8 ovarian
SK-OV-3 ovarian = tested on: SK-OV-3 ovarian
NCI-H226 lung = tested on: NCI-H226 lung
KM12 colon = tested on: KM12 colon
OVCAR-4 ovarian = tested on: OVCAR-4 ovarian
K-562 leukemia = tested on: K-562 leukemia
HCT-116 colon = tested on: HCT-116 colon
EKVX NSCLC = tested on: EKVX NSCLC
SR leukemia = tested on: SR leukemia
HS 578T breast = tested on: HS 578T breast
M14 melanoma = tested on: M14 melanoma
COLO 205 colon = tested on: COLO 205 colon
TK-10 renal = tested on: TK-10 renal
HOP-92 NSCLC = tested on: HOP-92 NSCLC
CAKI-1 renal = tested on: CAKI-1 renal
SW-620 colon = tested on: SW-620 colon
NCI/ADR-RES ovarian = tested on: NCI/ADR-RES ovarian
MDA-MB-231 breast = tested on: MDA-MB-231 breast
A549 NSCLC = tested on: A549 NSCLC
UO-31 renal = tested on: UO-31 renal
SK-MEL-2 melanoma = tested on: SK-MEL-2 melanoma
CCRF-CEM leukemia = tested on: CCRF-CEM leukemia
SK-MEL-5 melanoma = tested on: SK-MEL-5 melanoma
PC-3 prostate = tested on: PC-3 prostate
SF-539 CNS = tested on: SF-539 CNS

## CCN(Cc1ccc(C)cc1)c1ccc(CO)c(Cl)c1
NCI-H522 lung
  GI50: 11.5 µM
  TGI: 25.7 µM
HOP-62 NSCLC
  GI50: 0.779 µM
  TGI: 16.4 µM
NCI-H23 lung
  GI50: 9.95 µM
  TGI: 25.3 µM
MALME-3M melanoma
  GI50: 15.5 µM
  TGI: 32.2 µM
ACHN renal
  GI50: 10.1 µM
  TGI: 23.2 µM
RPMI-8226 leukemia
  GI50: 3.32 µM
  TGI: 30.6 µM
HL-60(TB) leukemia
  GI50: 5.78 µM
  TGI: 35.7 µM
UACC-257 melanoma
  GI50: 0.134 µM
  TGI: 0.339 µM
HCT-15 colon
  GI50: 6.41 µM
  TGI: 23.2 µM
MCF7 breast
  GI50: 0.191 µM
  TGI: 11 µM
MDA-MB-435
  GI50: 13.7 µM
  TGI: 28.5 µM
SN12C renal
  GI50: 10.6 µM
  TGI: 25.8 µM
LOX IMVI melanoma
  GI50: 7.05 µM
  TGI: 19.9 µM
U251 CNS
  GI50: 0.867 µM
  TGI: 14.5 µM
IGROV1 ovarian
  GI50: 0.108 µM
  TGI: 0.938 µM
786-0 renal
  GI50: 4.32 µM
  TGI: 19.3 µM
MOLT-4 leukemia
  GI50: 17 µM
  TGI: 45.4 µM
DU-145 prostate
  GI50: 12.7 µM
  TGI: 27.4 µM
OVCAR-5 ovarian
  GI50: 0.171 µM
  TGI: 0.689 µM
SNB-75 CNS
  GI50: 4.8 µM
  TGI: 20.9 µM
RXF 393 renal
  GI50: 4.71 µM
  TGI: 18.9 µM
SNB-19 CNS
  GI50: 14.5 µM
  TGI: 31.1 µM
SF-295 CNS
  GI50: 1.01 µM
  TGI: 15.8 µM
UACC-62 melanoma
  GI50: 0.0933 µM
  TGI: 0.684 µM
A498 renal
  GI50: 0.0398 µM
  TGI: 0.178 µM
OVCAR-3 ovarian
  GI50: 0.605 µM
  TGI: 5.31 µM
SK-MEL-28 melanoma
  GI50: 13.3 µM
  TGI: 26.2 µM
SF-268 CNS
  GI50: 15 µM
  TGI: 30.3 µM
HT29 colon
  GI50: 2.49 µM
  TGI: 14.7 µM
NCI-H460 lung
  GI50: 0.306 µM
  TGI: 11.7 µM
T-47D breast
  GI50: 0.149 µM
  TGI: 0.623 µM
BT-549 breast
  GI50: 5 µM
  TGI: 19 µM
HCC-2998 colon
  GI50: 10.4 µM
  TGI: 22.5 µM
OVCAR-8 ovarian
  GI50: 10.6 µM
  TGI: 26.1 µM
SK-OV-3 ovarian
  GI50: 4.23 µM
  TGI: 16.8 µM
NCI-H226 lung
  GI50: 0.0702 µM
  TGI: 0.204 µM
KM12 colon
  GI50: 14.6 µM
  TGI: 29.6 µM
OVCAR-4 ovarian
  GI50: 0.274 µM
  TGI: 4.11 µM
K-562 leukemia
  GI50: 2 µM
  TGI: > 50.5 µM
HCT-116 colon
  GI50: 0.0966 µM
  TGI: 4.11 µM
EKVX NSCLC
  GI50: 12.9 µM
  TGI: 29.4 µM
SR leukemia
  GI50: 17.6 µM
  TGI: 46.8 µM
HS 578T breast
  GI50: 12.5 µM
  TGI: 38.2 µM
M14 melanoma
  GI50: 10.5 µM
  TGI: 23.7 µM
COLO 205 colon
  GI50: 0.996 µM
  TGI: 4.05 µM
TK-10 renal
  GI50: 0.0795 µM
  TGI: 0.309 µM
HOP-92 NSCLC
  GI50: 1.86 µM
  TGI: 15.3 µM
CAKI-1 renal
  GI50: 0.721 µM
  TGI: 9.27 µM
SW-620 colon
  GI50: 0.763 µM
  TGI: 16.5 µM
NCI/ADR-RES ovarian
  GI50: 11.1 µM
  TGI: 25.3 µM
MDA-MB-231 breast
  GI50: 12.5 µM
  TGI: 29.6 µM
A549 NSCLC
  GI50: 1.55 µM
  TGI: 16.2 µM
UO-31 renal
  GI50: 3.81 µM
  TGI: 17.7 µM
SK-MEL-2 melanoma
  GI50: 2.2 µM
  TGI: 16.2 µM
CCRF-CEM leukemia
  GI50: 15.9 µM
  TGI: 51.3 µM
SK-MEL-5 melanoma
  GI50: 3.84 µM
  TGI: 17.7 µM
PC-3 prostate
  GI50: 13.3 µM
  TGI: 29.5 µM
SF-539 CNS
  GI50: 14.2 µM
  TGI: 28.3 µM
